Reference: patent publication US9796714B2, “Calcium channel agonists” (University of Pittsburgh—Of the Commonwealth System of …, priority 2013, dated 2017)
Like-named read-outs stand apart in the source and are kept apart here.

Assays:
[1] = biological target: T1, mitogen-activated protein kinase (MAPK1(h)) (Homo sapiens, UniProt P27361); assay: Kinase inhibitory activity (EMD Millipore KinaseProfiler), MAPK1; format: biochemical; settings: 20 μM highest concentration used; read-out: MAPK EC50/IC50 affinities
T1 construct: purchased EMD Millipore KinaseProfiler service (Millipore UK Ltd.)
T1 sequence (P27361 whole entry): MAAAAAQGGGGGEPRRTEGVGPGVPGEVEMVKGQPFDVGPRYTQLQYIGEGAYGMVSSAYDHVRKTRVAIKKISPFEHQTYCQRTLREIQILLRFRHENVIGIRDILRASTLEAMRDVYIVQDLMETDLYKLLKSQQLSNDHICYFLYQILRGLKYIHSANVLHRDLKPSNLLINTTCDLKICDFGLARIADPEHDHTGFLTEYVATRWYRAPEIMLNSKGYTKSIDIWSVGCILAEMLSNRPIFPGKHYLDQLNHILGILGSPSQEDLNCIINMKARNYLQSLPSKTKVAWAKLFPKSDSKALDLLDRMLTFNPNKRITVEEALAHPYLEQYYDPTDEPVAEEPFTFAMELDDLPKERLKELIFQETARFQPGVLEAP
Method: (§1) Kinase inhibitory activity. Kinase inhibitory activities were determined using the EMD Millipore KinaseProfiler™ service (Millipore UK Ltd.). Each compound's kinase inhibitory activity was tested at three different concentrations (0.2 μM, 2 μM, and 20 μM) against five different kinases: Cdk1 cyclinB(h), cdk2 cyclinA(h), cdk5 p35(h), mitogen-activated protein kinase (MAPK1(h)) and myosin light-chain kinase (MLCK(h)).
(§2) Statistical Analysis. […] For the dose-response analyses on Ca^2+ current, each concentration of the four different compounds was tested in 3-6 cells. […] All EC50 and IC50 values and their respective errors were determined by performing 100 iterations of a logistic function curve fit.

[2] = biological target: T2, N-type Ca^2+ channel (Cav2.2) (Rattus norvegicus, UniProt Q02294); assay: N-type Ca2+ channel agonist activity, whole-cell perforated patch clamp of tail currents in tsA201 cells; format: cell-based
T2 construct: expressed in transfected cells; later also transient transfection
T2 sequence (Q02294 whole entry): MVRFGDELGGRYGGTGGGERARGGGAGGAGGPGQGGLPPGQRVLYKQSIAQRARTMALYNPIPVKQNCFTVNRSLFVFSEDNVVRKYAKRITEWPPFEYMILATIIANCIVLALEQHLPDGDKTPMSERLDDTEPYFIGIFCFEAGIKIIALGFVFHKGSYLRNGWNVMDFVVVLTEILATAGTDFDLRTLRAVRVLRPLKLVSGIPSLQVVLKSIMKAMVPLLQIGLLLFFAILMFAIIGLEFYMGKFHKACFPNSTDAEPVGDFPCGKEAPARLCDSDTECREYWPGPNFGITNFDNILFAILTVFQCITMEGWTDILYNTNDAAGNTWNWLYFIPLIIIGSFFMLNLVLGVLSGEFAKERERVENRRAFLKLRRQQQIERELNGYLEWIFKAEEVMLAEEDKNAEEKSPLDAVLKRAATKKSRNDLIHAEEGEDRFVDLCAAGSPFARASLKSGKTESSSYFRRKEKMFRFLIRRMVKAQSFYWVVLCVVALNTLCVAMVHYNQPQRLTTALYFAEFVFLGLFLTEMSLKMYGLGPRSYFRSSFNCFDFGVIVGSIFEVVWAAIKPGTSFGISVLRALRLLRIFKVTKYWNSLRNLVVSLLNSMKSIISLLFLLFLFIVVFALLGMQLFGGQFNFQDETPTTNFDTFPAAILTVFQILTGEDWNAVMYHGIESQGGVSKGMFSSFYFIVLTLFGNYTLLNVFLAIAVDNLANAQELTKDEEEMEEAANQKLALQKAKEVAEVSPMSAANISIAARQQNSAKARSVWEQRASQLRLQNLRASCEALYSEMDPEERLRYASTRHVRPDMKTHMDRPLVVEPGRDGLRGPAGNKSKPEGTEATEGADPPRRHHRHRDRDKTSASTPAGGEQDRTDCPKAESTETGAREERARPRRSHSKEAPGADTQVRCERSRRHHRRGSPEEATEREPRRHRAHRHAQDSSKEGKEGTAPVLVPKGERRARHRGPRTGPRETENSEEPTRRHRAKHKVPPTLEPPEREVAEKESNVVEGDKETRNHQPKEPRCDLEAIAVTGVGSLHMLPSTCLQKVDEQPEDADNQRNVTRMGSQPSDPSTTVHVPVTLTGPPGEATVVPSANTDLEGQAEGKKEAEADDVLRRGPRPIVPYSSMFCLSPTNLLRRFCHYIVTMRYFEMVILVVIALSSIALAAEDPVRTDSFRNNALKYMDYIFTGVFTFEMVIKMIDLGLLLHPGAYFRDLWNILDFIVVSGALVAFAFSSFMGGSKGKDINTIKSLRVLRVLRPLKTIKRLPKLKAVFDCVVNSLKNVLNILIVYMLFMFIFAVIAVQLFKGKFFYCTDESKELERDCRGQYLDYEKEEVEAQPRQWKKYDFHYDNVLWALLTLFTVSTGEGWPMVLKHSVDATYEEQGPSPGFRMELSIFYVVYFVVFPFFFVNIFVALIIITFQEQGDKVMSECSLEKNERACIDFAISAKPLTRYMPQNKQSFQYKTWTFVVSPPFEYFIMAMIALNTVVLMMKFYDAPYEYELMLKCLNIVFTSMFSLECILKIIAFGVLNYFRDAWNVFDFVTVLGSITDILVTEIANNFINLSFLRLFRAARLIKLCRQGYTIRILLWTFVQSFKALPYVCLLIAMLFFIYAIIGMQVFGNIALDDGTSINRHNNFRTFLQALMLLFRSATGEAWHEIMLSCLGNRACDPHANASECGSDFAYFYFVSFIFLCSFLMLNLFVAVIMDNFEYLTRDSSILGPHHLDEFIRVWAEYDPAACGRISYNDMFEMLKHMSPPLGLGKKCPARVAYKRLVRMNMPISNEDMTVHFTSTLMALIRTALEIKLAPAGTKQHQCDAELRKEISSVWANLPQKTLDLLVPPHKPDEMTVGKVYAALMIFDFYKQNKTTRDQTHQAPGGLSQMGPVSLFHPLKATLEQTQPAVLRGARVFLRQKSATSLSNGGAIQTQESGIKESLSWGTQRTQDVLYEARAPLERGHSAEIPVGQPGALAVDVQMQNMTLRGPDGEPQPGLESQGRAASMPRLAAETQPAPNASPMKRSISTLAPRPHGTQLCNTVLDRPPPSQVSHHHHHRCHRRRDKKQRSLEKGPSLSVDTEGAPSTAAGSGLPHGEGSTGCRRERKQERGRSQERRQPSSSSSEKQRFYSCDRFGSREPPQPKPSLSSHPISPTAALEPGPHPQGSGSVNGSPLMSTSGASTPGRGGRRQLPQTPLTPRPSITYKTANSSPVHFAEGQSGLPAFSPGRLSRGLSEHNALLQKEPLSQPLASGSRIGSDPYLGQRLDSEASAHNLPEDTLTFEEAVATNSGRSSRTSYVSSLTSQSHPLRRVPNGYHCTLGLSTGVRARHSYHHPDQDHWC
Method: tsA201 cells expressing calcium channels. […] For subsequent evaluation of effects on N-, P/Q-, or L-type channels, tsA-201 cells were transiently transfected with Cav2.2, Cav2.1, or Cav1.3, in combination with Cavβ3 and […] (Addgene, Cambridge Mass.) using FuGENE 6 (Life Technologies, Grand Island, N.Y.). All cells were maintained in DMEM supplemented with 10% fetal bovine serum. For the stable cell line expressing N-type channels, 25 μg/mL zeocin, 5 μg/mL blasticidin, and 25 μg/mL hygromycin were added as selection agents.
Whole-cell patch clamp recordings of calcium current. […] Briefly, the pipette solution consisted of […] Cs2SO4, 60 mM CsCl, 1 mM MgCl2, 10 mM 4-(2-hydroxyethyl)-1-piperazineethanesulfonic acid (HEPES) at pH 7.4. […] Patch pipettes were fabricated from borosilicate glass and pulled to a resistance of about 1 MΩ. Before each experiment, a stock solution consisting of 3 mg amphotericin-B dissolved into 50 μL anhydrous DMSO was made. […] Capacitive currents and passive membrane responses to voltage commands were subtracted from the data. Currents were amplified by an Axopatch 200B amplifier, filtered at 5 KHz, and digitized at 10 KHz for subsequent analysis using pClamp software (Axon Instruments/Molecular Devices; Sunnyvale, Calif.). […] To measure effects on calcium channel tail currents, the tail current integral was measured before and after application of a derivative, with the integral of each trace being normalized to its peak. All experiments were carried out at room temperature (22° C.). […] All other salts and chemicals were obtained from Sigma-Aldrich chemical company (St. Louis, Mo.).
(§3) Statistical Analysis. Statistical analysis was performed using either GraphPad Prism 5 (GraphPad Software, Inc.) or Origin 7 (OriginLab) software. For the dose-response analyses on Ca^2+ current, each concentration of the four different compounds was tested in 3-6 cells. […] All EC50 and IC50 values and their respective errors were determined by performing 100 iterations of a logistic function curve fit. Data are presented as mean±s.e.m. unless otherwise noted.

[3] = biological target: T3, cdk2 cyclinA(h) (Homo sapiens, UniProt P24941); assay: Kinase inhibitory activity (EMD Millipore KinaseProfiler), cdk2; format: biochemical
T3 construct: purchased EMD Millipore KinaseProfiler service (Millipore UK Ltd.)
Method: as §1, §2

[4] = biological target: T4, cdk5 p35(h) (Homo sapiens, UniProt Q00535); assay: Kinase inhibitory activity (EMD Millipore KinaseProfiler), cdk5; format: biochemical; settings: 20 μM highest concentration used; read-out: Cdk5 EC50/IC50 affinities
T4 construct: purchased EMD Millipore KinaseProfiler service (Millipore UK Ltd.)
T4 sequence (Q00535 whole entry): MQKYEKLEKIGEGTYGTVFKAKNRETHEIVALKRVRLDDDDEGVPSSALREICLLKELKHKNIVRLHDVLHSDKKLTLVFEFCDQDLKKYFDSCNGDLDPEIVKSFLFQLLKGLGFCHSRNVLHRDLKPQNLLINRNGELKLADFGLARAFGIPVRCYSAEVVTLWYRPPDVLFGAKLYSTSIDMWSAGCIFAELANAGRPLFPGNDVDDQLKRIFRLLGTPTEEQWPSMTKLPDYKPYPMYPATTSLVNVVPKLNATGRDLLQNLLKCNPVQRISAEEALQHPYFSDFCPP
T4 sequence (Q15078 whole entry partner): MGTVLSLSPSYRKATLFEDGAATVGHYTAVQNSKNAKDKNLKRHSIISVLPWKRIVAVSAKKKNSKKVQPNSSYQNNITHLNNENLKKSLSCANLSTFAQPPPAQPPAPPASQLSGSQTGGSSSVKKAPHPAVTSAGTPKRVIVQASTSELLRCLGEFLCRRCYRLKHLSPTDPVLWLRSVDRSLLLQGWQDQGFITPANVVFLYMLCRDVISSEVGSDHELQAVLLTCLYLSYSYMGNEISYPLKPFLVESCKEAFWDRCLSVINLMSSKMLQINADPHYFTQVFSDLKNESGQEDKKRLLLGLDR
Method: as §1, §3

[5] = biological target: T5, myosin light-chain kinase (MLCK(h)) (Homo sapiens, UniProt Q9H1R3); assay: Kinase inhibitory activity (EMD Millipore KinaseProfiler), MLCK; format: biochemical; settings: 20 μM highest concentration used; read-out: MLCK EC50/IC50 affinities
T5 construct: purchased EMD Millipore KinaseProfiler service (Millipore UK Ltd.)
Method: as §1, §2

[6] = biological target: T6, Cdk1 cyclinB(h) (Homo sapiens, UniProt P06493); assay: Kinase inhibitory activity (EMD Millipore KinaseProfiler), cdk1; format: biochemical; settings: 20 μM highest concentration used; read-out: Cdk1 EC50/IC50 affinities
T6 construct: purchased EMD Millipore KinaseProfiler service (Millipore UK Ltd.)
T6 sequence (P06493 whole entry): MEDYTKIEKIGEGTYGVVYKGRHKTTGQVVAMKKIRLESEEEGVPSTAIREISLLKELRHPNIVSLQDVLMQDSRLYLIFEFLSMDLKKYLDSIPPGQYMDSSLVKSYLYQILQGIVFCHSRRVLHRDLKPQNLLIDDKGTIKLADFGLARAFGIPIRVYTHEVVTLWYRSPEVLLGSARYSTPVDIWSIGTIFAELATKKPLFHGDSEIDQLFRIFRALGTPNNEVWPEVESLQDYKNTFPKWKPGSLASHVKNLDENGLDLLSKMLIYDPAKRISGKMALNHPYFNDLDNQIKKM
T6 sequence (P14635 whole entry partner): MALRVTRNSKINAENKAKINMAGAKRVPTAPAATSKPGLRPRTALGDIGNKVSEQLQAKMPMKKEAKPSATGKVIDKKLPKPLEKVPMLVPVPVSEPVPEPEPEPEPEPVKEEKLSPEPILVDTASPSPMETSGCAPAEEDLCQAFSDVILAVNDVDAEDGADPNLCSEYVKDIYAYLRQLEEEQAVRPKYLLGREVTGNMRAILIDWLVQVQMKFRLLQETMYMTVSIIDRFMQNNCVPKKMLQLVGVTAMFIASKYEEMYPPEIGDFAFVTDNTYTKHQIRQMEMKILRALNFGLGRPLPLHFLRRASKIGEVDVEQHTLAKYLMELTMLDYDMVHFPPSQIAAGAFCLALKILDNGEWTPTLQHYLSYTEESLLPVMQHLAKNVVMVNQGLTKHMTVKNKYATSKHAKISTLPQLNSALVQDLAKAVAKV
Method: as §1, §3

[7] = Solubility in saline with 1% DMSO; format: physicochemical; settings: saline or isotonic, kinetic from dmso stock
[8] = Table 3, calcium channel agonist, read-out: N-type EC50/IC50 affinities
[9] = whole cell perforated patch clamp, deactivation (tail) currents from N-type channels, read-out: N-Type Ca^2+ Channel Activity EC50 +/− SEM

| SMILES | IC50 [1] | decreased channel activity vs 13u [2] | agonist effect on the Ca^2+ channel tail currents (in words) ([2]; N-type) | maximal fold increase in the tail current integral relative to control ([2]; N-type channels) | EC50 [2, 8] | EC50 [2, 9] | IC50 ([3]; 20 μM highest concentration used, read-out: Cdk2 EC50/IC50 affinities) | EC50 ([3]; determined in duplicate at 0.2, 2, and 20 μM, read-out: Cdk2 Activity EC50 +/− SEM) | IC50 [4] | IC50 [5] | IC50 [6] | solubility [7] | increased Ca^2+ channel agonism vs. (R)-roscovitine ([2]; N-type) |
| --- | --- | --- | --- | --- | --- | --- | --- | --- | --- | --- | --- | --- | --- |
| CC[C@H](CO)Nc1nc(NCc2ccc(C)s2)c2ncn(C)c2n1 [Compound 13w, (2R)-2-[(9-Methyl-6-{[(5-methylthiophen-2-yl)methyl]amino}-9H-purin-2-yl)amino]butan-1-ol] | > 20 µM | ca. 3 fold | strong agonist effect | ~13 fold | 30 ± 1.87 µM | 30 ± 1.87 µM | 3.04 ± 0.17 µM | 3 µM | 2.81 ± 0.91 µM | > 20 µM | 10.5 ± 2.77 µM |  |  |
| CC[C@H](CO)Nc1nc(NCc2ccccc2)c2ncn(C)c2n1 [Compound 13k, (R)-2-(6-(Benzylamino)-9-methyl-9H-purin-2-ylamino)butan-1-ol] |  |  |  |  |  | > 70 µM |  |  |  |  |  | ≤ 200 µM |  |
| CC[C@H](CO)Nc1nc(NCc2ccc(C)s2)c2ncn(C(C)C)c2n1 [Compound 13u, (R)-2-(9-Isopropyl-6-((5-methylthiophen-2-yl)methylamino)-9H-purin-2-ylamino)butan-1-ol] | > 20 µM |  | strong agonist effect |  | 11.3 ± 1.48 µM | 11.3 ± 1.48 µM |  |  |  | 19.5 ± 8.65 µM |  |  | ~4 fold |
